Source: patent US20240002365A1, “PYRIDAZINE AND 1,2,4-TRIAZINE DERIVATIVES AS FGFR KINASE INHIBITORS” (BETA PHARMA, INC., priority 2020, published 2024)

Target: FGFR1 (Homo sapiens (Human), UniProt P11362)
Test: RBC NanoBRET Assay for Target Engagement in HEK293 cells transfected with FGFR1-NanoLuc Fusion vector
Format: cell-based
Details: 1 hour, tracer K5 1 μM
Protocol: Cellular Assay. The RBC NanoBRET Assay for Target Engagement was performed by Reaction Biology Corporation, 1 Great Valley Parkway, Suite 2 Malvern, PA 19355, USA. The assay was conducted in HEK293 cells transiently transfected with FGFR1-NanoLuc Fusion vector. The HEK293 cells (ATCC) were transfected with 1 μg of FGFR1-NanoLuc Fusion vector in 384-well format and the transfected cells were subsequently treated with the test compounds (starting at 10 μM, 10-dose with 3-fold dilution) for 1 hour using CTx-0294885 as the reference standard and K5 (1 μM) was used as the tracer. FGFR1 target engagement was measured and the curve fits were performed only when % NanoBret signal at the highest concentration of compounds was less than 55%.

Chain of FGFR1 (P11362 22-822): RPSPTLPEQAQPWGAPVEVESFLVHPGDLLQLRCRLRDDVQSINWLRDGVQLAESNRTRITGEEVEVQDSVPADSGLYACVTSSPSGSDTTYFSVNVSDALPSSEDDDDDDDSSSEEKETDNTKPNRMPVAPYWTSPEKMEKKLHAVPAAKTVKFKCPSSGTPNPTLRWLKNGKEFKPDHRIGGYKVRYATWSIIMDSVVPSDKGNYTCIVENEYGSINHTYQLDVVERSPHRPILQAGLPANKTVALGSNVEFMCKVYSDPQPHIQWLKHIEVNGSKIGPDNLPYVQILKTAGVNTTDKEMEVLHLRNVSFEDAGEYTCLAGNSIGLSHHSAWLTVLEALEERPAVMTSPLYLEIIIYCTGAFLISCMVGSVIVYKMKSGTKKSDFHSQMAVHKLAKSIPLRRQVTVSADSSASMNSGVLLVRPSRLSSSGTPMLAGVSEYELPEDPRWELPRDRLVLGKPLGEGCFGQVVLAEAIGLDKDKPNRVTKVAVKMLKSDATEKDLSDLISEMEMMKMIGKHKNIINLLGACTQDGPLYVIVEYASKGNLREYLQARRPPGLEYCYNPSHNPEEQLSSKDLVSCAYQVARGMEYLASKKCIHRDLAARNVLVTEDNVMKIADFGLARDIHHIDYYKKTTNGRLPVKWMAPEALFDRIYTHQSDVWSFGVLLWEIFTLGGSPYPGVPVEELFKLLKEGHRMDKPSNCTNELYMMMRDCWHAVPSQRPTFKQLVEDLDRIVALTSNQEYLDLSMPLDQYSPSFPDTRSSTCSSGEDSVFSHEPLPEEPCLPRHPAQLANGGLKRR

SMILES: CNC(=O)c1ccccc1Nc1nc(Nc2ccc(N3CCNCC3)cc2)ncc1Cl [CTx-0294885, reference compound]
- IC50: 35 nM
